Test results published in patent US9464326B2, “Total and phosphorylated IL-1 receptor-associated kinase-1 and IL-1 receptor-associated kinase-4 as a biomarker for cancer progression and chemotherapy resistance” (University of Maryland, Baltimore, priority 2012, dated 2016).

Tested on: CCRF-CEM cells
Test: Cell number and apoptosis assays
Assay type: cell-based, human
Settings: IRAK-1,-4 inhibitor 0-20 μM plus titrated drug, apoptosis by 7AAD at 48 hours, FIG. 23
Method: TLR ligands were diluted 2-fold. Cell lines (25-40×10^3/well) were cultured for 54 hours, whereas fresh patient-derived T-ALL cells (200×10^3/well) were cultured for 30 hours prior to adding [^3H]-thymidine for 18 hours. After this time point, cells were harvested with a Packard Filter-Mate-96 cell harvester (Perkin Elmer, Waltham, Mass., USA) and counted on Packard Top Count-NXT (Perkin Elmer, Waltham, Mass., USA). Results were expressed as average counts per minute (cpm). In some experiments CCRF-CEM cells were pre-treated with TLR1-TLR2 ligand (Pam3CysK4; 2.5 ug/ml) for 48 hrs, washed, and then cultured in the presence of varying concentrations of FBS. Forty-eight hours later, proliferation (±SD) was determined by ^3H-thymidine incorporation. Alternatively, apoptosis was measured by flow cytometry after staining cells with Annexin-V (BD Pharmingen, San Diego, Calif., USA) and propidium iodide (Sigma). Cell number was counted under microscopy by staining cells with trypan blue.
CCRF-CEM cells were treated with IRAK-1,-4 inhibitor for 24, 48, 72, and 96 hours.
The T-ALL cell line CCRF-CEM was cultured in the presence of 0, 1.2, 5, 10, and 20 μM IRAK-1,-4 inhibitor. (FIG. 23). To each concentration of IRAK-1,-4 inhibitor titrating doses of ABT-737 (1000→15 nM) vincristine, VS (10→0.1 nM), and paclitaxol, PAC (100→1.5 nM). […] Apoptosis was measure 48 hours later by staining cells with 7AAD and analyzed by flow cytometry.

In the case of CN(C)CC[C@H](CSc1ccccc1)Nc1ccc(S(=O)(=O)NC(=O)c2ccc(N3CCN(Cc4ccccc4-c4ccc(Cl)cc4)CC3)cc2)cc1[N+](=O)[O-] [ABT-737], the “synergy with IRAK-1,-4 inhibitor” value is reported as “synergy”.
